Experiments:
A549 = assay: Cytotoxicity against human A549 cells after 72 hrs by MTT assay; conditions: A549, 72 h
HT-29 = assay: Cytotoxicity against human HT-29 cells after 72 hrs by MTT assay; conditions: HT-29, 72 h
[1] = Cytotoxicity against human MKN45 cells after 72 hrs by MTT assay; conditions: MKN-45, 72 h
[2] = Cytotoxicity against human U87MG cells after 72 hrs by MTT assay; format: functional, cell-based, U-87MG ATCC; conditions: U-87 MG
[3] = Cytotoxicity against human H460 cells after 72 hrs by MTT assay; conditions: NCI-H460, 72 h
[4] = biological target: Hepatocyte growth factor receptor (Homo sapiens, UniProt P08581); assay: Inhibition of c-Met (unknown origin) using poly (Glu, Tyr) 4:1 substrate incubated for 30 mins by HTRF assay
Hepatocyte growth factor receptor, sequence (P08581 whole entry): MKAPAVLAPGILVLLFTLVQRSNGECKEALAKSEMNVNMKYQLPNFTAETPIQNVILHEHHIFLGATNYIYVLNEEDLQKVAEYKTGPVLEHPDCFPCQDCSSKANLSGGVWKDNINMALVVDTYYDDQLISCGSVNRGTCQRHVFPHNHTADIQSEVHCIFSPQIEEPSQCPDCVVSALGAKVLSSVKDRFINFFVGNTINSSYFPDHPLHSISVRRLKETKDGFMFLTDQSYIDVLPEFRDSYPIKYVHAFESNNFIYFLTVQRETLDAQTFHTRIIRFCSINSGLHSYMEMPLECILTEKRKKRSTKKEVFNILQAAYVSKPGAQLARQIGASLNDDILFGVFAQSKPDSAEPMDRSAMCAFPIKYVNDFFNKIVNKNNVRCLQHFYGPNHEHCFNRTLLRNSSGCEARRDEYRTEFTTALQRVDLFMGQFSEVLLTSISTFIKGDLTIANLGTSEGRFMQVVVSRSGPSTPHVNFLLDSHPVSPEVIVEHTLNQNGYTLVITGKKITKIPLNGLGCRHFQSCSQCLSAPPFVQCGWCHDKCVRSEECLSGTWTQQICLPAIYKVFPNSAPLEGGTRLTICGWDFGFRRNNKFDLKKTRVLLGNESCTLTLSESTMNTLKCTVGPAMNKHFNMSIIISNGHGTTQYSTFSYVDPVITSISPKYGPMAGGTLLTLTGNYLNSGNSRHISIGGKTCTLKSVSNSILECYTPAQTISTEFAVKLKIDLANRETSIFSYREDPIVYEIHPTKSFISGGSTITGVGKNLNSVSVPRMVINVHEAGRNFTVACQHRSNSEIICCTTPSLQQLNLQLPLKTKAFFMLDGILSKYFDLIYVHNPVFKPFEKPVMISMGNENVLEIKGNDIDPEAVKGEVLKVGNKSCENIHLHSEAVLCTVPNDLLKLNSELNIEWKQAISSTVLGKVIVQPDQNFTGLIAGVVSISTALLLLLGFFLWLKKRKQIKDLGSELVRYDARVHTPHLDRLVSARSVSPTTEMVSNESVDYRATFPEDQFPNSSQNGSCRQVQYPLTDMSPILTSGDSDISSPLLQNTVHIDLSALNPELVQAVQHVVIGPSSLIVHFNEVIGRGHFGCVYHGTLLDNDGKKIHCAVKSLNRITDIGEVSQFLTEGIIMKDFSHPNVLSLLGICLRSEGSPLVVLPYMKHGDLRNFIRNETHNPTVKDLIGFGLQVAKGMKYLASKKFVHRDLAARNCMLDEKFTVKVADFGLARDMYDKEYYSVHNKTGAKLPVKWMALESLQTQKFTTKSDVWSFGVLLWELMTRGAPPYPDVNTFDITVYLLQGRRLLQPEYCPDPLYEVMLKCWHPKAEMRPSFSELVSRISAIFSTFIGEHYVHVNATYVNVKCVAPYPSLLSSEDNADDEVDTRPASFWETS

IC50 [4] | SMILES | IC50 (A549) | IC50 (HT-29) | IC50 [1] | IC50 [2] | IC50 [3]
– | COc1cc2c(Oc3ccc(NC(=O)c4nnn(-c5ccccc5C(F)(F)F)c4C)cc3F)ccnc2cc1OCCCN1CCCC1 | 160 nM | 200 nM | 70 nM | 1060 nM | –
– | COc1cc2c(Oc3ccc(NC(=O)c4nnn(-c5ccccc5Cl)c4C(F)(F)F)cc3F)ccnc2cc1OCCCN1CCCCC1 | 190 nM | 200 nM | 110 nM | 1200 nM | –
– | COc1cc2c(Oc3ccc(NC(=O)c4nnn(-c5ccc(C)cc5)c4C(F)(F)F)cc3F)ccnc2cc1OCCCN1CCN(C)CC1 | 370 nM | 1170 nM | 140 nM | 2170 nM | –
– | COc1ccc(-n2nnc(C(=O)Nc3ccc(Oc4ccnc5cc(OCCCN6CCCC6)c(OC)cc45)c(F)c3)c2C(F)(F)F)cc1 | 560 nM | 1020 nM | 590 nM | – | –
– | COc1ccc(-n2nnc(C(=O)Nc3ccc(Oc4ccnc5cc(OCCCN6CCCCC6)c(OC)cc45)c(F)c3)c2C(F)(F)F)cc1 | 890 nM | 1220 nM | 280 nM | 2800 nM | –
– | COc1cc2c(Oc3ccc(NC(=O)c4nnn(-c5cccc(Br)c5)c4C(F)(F)F)cc3F)ccnc2cc1OCCCN1CCC(C)CC1 | 350 nM | 380 nM | 120 nM | – | –
– | COc1cc2c(Oc3ccc(NC(=O)c4nnn(-c5ccccc5Cl)c4C(F)(F)F)cc3F)ccnc2cc1OCCCN1CCN(C)CC1 | 240 nM | 270 nM | 166 nM | 1220 nM | –
– | COc1cc2c(Oc3ccc(NC(=O)c4nnn(-c5ccc(F)cc5)c4C(F)(F)F)cc3F)ccnc2cc1OCCCN1CCC(C)CC1 | 120 nM | 160 nM | 70 nM | 800 nM | –
– | COc1cc2c(Oc3ccc(NC(=O)c4nnn(-c5ccccc5C(F)(F)F)c4C)cc3F)ccnc2cc1OCCCN1CCCCC1 | 170 nM | 200 nM | 90 nM | 1150 nM | –
– | COc1cc2c(Oc3ccc(NC(=O)c4nnn(-c5ccccc5)c4C)cc3F)ccnc2cc1OCCCN1CCC(C)CC1 | 110 nM | 140 nM | 90 nM | 1240 nM | –
– | COc1cc2c(Oc3ccc(NC(=O)c4nnn(-c5ccc(C)cc5)c4C(F)(F)F)cc3F)ccnc2cc1OCCCN1CCCCC1 | 490 nM | 1250 nM | 230 nM | 2500 nM | –
– | COc1cc2c(Oc3ccc(NC(=O)c4nnn(-c5ccc(F)c(F)c5)c4C(F)(F)F)cc3F)ccnc2cc1OCCCN1CCC(C)CC1 | 140 nM | 190 nM | 50 nM | 1150 nM | –
– | COc1cc2c(Oc3ccc(NC(=O)c4nnn(-c5ccc(C)cc5)c4C(F)(F)F)cc3F)ccnc2cc1OCCCN1CCC(C)CC1 | 400 nM | 1200 nM | 140 nM | 2800 nM | –
– | COc1cc2c(Oc3ccc(NC(=O)c4nnn(-c5ccccc5C(F)(F)F)c4C(F)(F)F)cc3F)ccnc2cc1OCCCN1CCN(C)CC1 | 180 nM | 230 nM | 100 nM | 1440 nM | –
– | COc1cc2c(Oc3ccc(NC(=O)c4nnn(-c5ccc(F)c(F)c5)c4C(F)(F)F)cc3F)ccnc2cc1OCCCN1CCCC1 | 170 nM | 180 nM | 70 nM | 1070 nM | –
– | COc1cc2c(Oc3ccc(NC(=O)c4nnn(-c5ccc(F)c(F)c5)c4C(F)(F)F)cc3F)ccnc2cc1OCCCN1CCN(C)CC1 | 130 nM | 150 nM | 90 nM | 1390 nM | –
– | COc1cc2c(Oc3ccc(NC(=O)c4nnn(-c5ccccc5)c4C)cc3F)ccnc2cc1OCCCN1CCCC1 | 90 nM | 130 nM | 40 nM | 1000 nM | –
– | COc1cc2c(Oc3ccc(NC(=O)c4nnn(-c5ccccc5)c4C)cc3F)ccnc2cc1OCCCN1CCCCC1 | 100 nM | 120 nM | 80 nM | 1130 nM | –
– | COc1cc2c(Oc3ccc(NC(=O)c4nnn(-c5ccc(F)cc5)c4C(F)(F)F)cc3F)ccnc2cc1OCCCN1CCCCC1 | 110 nM | 150 nM | 40 nM | 1100 nM | –

IC50 [4] | SMILES | IC50 (A549) | IC50 (HT-29) | IC50 [1] | IC50 [2] | IC50 [3]
– | COc1cc2c(Oc3ccc(NC(=O)c4nnn(-c5ccccc5C(F)(F)F)c4C(F)(F)F)cc3F)ccnc2cc1OCCCN1CCC(C)CC1 | 220 nM | 200 nM | 100 nM | 1240 nM | –
– | COc1cc2c(Oc3ccc(NC(=O)c4nnn(-c5ccc(F)cc5)c4C(F)(F)F)cc3F)ccnc2cc1OCCCN1CCOCC1 | 130 nM | 140 nM | 60 nM | 1080 nM | –
– | COc1cc2c(Oc3ccc(NC(=O)c4nnn(-c5ccc(F)c(F)c5)c4C(F)(F)F)cc3F)ccnc2cc1OCCCN1CCCCC1 | 160 nM | 180 nM | 90 nM | 1210 nM | –
– | COc1cc2c(Oc3ccc(NC(=O)c4nnn(-c5ccccc5)c4C)cc3F)ccnc2cc1OCCCN1CCOCC1 | 140 nM | 180 nM | 60 nM | 1060 nM | –
– | COc1cc2c(Oc3ccc(NC(=O)c4nnn(-c5ccc(F)c(F)c5)c4C(F)(F)F)cc3F)ccnc2cc1OCCCN1CCOCC1 | 150 nM | 230 nM | 50 nM | 1130 nM | –
– | COc1cc2c(Oc3ccc(NC(=O)c4nnn(-c5ccccc5C(F)(F)F)c4C)cc3F)ccnc2cc1OCCCN1CCOCC1 | 180 nM | 200 nM | 100 nM | 1010 nM | –
– | COc1ccc(-n2nnc(C(=O)Nc3ccc(Oc4ccnc5cc(OCCCN6CCN(C)CC6)c(OC)cc45)c(F)c3)c2C(F)(F)F)cc1 | 1220 nM | 2200 nM | 330 nM | – | –
– | COc1cc2c(Oc3ccc(NC(=O)c4nnn(-c5ccc(C)cc5)c4C(F)(F)F)cc3F)ccnc2cc1OCCCN1CCCC1 | 370 nM | 550 nM | 210 nM | – | –
3.68 nM | COc1cc2c(Oc3ccc(NC(=O)c4nnn(-c5ccccc5C(F)(F)F)c4C(F)(F)F)cc3F)ccnc2cc1OCCCN1CCCC1 | 200 nM | 210 nM | 60 nM | 1180 nM | 270 nM
– | COc1ccc(-n2nnc(C(=O)Nc3ccc(Oc4ccnc5cc(OCCCN6CCOCC6)c(OC)cc45)c(F)c3)c2C(F)(F)F)cc1 | 640 nM | 1080 nM | 680 nM | 2400 nM | –
– | COc1cc2c(Oc3ccc(NC(=O)c4nnn(-c5ccccc5C(F)(F)F)c4C(F)(F)F)cc3F)ccnc2cc1OCCCN1CCOCC1 | 210 nM | 230 nM | 90 nM | 1160 nM | –
– | COc1cc2c(Oc3ccc(NC(=O)c4nnn(-c5ccccc5C)c4C)cc3F)ccnc2cc1OCCCN1CCCCC1 | 330 nM | 450 nM | 160 nM | 2370 nM | –
– | COc1cc2c(Oc3ccc(NC(=O)c4nnn(-c5ccccc5C(F)(F)F)c4C)cc3F)ccnc2cc1OCCCN1CCN(C)CC1 | 200 nM | 230 nM | 100 nM | 1420 nM | –
– | COc1cc2c(Oc3ccc(NC(=O)c4nnn(-c5ccccc5C)c4C)cc3F)ccnc2cc1OCCCN1CCCC1 | 380 nM | 450 nM | 270 nM | 1600 nM | –
– | COc1cc2c(Oc3ccc(NC(=O)c4nnn(-c5ccccc5C)c4C)cc3F)ccnc2cc1OCCCN1CCOCC1 | 320 nM | 470 nM | 220 nM | 1500 nM | –
– | COc1cc2c(Oc3ccc(NC(=O)c4nnn(-c5ccccc5C)c4C)cc3F)ccnc2cc1OCCCN1CCC(C)CC1 | 360 nM | 520 nM | 120 nM | 2160 nM | –
– | COc1cc2c(Oc3ccc(NC(=O)c4nnn(-c5ccccc5C(F)(F)F)c4C)cc3F)ccnc2cc1OCCCN1CCC(C)CC1 | 180 nM | 260 nM | 60 nM | 1120 nM | –
– | COc1cc2c(Oc3ccc(NC(=O)c4nnn(-c5ccc(C)cc5)c4C(F)(F)F)cc3F)ccnc2cc1OCCCN1CCOCC1 | 350 nM | 570 nM | 620 nM | 2700 nM | –
